{"source": "patent US10183053B1", "about": "“Multi-component formulations” (priority 2017, dated 2019)", "key": {"primary chicken neurons": {"system": "primary chicken neurons", "test": "MTT cell viability assay in primary chicken neurons", "format": "cell-based", "settings": "for Cell viability, Mean: no MSM nor FDP, 48 h; for concentration above which cell viability declined: compared to vehicle control, FIG. 5, FIG. 6", "procedure": "Fertilized chicken eggs were stored under turning at 37.8° C. and 55% humidity until embryonic day eight. Embryos were transferred to a plastic dish and decapitated. Both hemispheres were removed, collected and cleaned from any loose tissue. Hemispheres were mechanically dissociated and 4.8×10^4 cells per well (96-well plates) were seeded in a volume of 160 μL. The cell culture medium consisted of Dubelcco's Modified Eagle's Medium with […], 5% Nu Serum, 0.01% gentamycin and 2 mM L-glutamine. Cultures were maintained at 37° C., 95% humidity and 5% CO2.\nTest compositions and vehicle controls were applied to chicken neurons at day-in-vitro 8 for 48 h. On day-in-vitro 10 the viability of neurons was determined according to MTT cell viability assay using a plate reader (570 nm). That assay allows the measurement of the mitochondrial dehydrogenase activity, which reduces yellow MTT to dark blue formazan crystals. Since this reaction is catalyzed in living cells only, this assay is used for the determination of cell viability. MTT solution was added to each well in a final concentration of 0.5 mg/mL. After two hours the MTT-containing medium is aspired. Cells were lysed in 3% SDS and the formazan crystals were dissolved in isopropanol/HCl. Optical density was measured with a plate reader at 570 nm. Cell survival rage was expressed as optical density (OS). Values were calculated as percent of control values (vehicle control, which is medium).\nUsing the same protocol as in Example 2, primary chicken neurons were treated with varying concentrations of methylsulfonylmethane and/or fructose 1,6-diphosphate. Cell viability was determined with the MTT assay.\nUsing the protocol of Example 2, a formulation containing methylsulfonylmethane (0.1 μM), D-fructose 1,6-diphosphate trisodium salt hydrate (1 μM), and rutin (0.001 μM) was tested for cell viability in primary chicken neurons. Vehicle control (medium) and methylsulfonylmethane with fructose 1,6-diphosphate compositions were also tested. The results appear in FIG. 12."}, "[1]": {"system": "human stem cell derived neurons", "test": "Cell viability of human stem cell derived neurons treated with multi-component formulations (Hoechst/propidium iodide, ArrayScan VTI)", "format": "cell-based", "procedure": "Cryopreserved human stem cell derived neurons obtained from PhoenixSongs Biologicals were thawed and plated at a density of 12000 cells per well in a 384-well PDL/laminin coated plate. The neurons were maintained in a humidified environment at 37° C. with 5% CO2 for six days with periodic media changes before experimental procedures were performed. […] Cells were dosed in triplicate with 10-point dose response curves to determine if there was any protective effect (improved survival of cells) or toxicity with the test compounds versus the untreated cells. A positive control (chlorpromazine) was also used to assess cytotoxicity response in these cells. After a three-day incubation with test compositions, the cells were stained with Hoechst and propidium iodide and read on an ArrayScan VTI to determine cell viability. Results were normalized to vehicle and graphed using GraphPad Prism. […]"}}, "data": [{"smiles": "C[C@@H]1O[C@@H](OC[C@H]2O[C@@H](Oc3c(-c4ccc(O)c(O)c4)oc4cc(O)cc(O)c4c3=O)[C@H](O)[C@@H](O)[C@@H]2O)[C@H](O)[C@H](O)[C@H]1O", "note": "[Rutin, quercetin-3-O-rutinoside]", "values": [{"measurement": "Cell viability, Mean", "setting": "primary chicken neurons; rutin 0.001 (μM), vehicle alone", "value": "96.7% of control"}, {"measurement": "Cell viability, Mean", "setting": "primary chicken neurons; rutin 0.01, vehicle alone", "value": "99.7% of control"}, {"measurement": "Cell viability, Mean", "setting": "primary chicken neurons; rutin 0.1, vehicle alone", "value": "98.1% of control"}, {"measurement": "Cell viability, Mean", "setting": "primary chicken neurons; rutin 1, vehicle alone", "value": "97.7% of control"}, {"measurement": "Cell viability, Mean", "setting": "primary chicken neurons; rutin 10, vehicle alone", "value": "100.2% of control"}]}, {"smiles": "CN(C)CCCN1c2ccccc2Sc2ccc(Cl)cc21", "note": "[Chlorpromazine, chlorpromazine]", "values": [{"measurement": "IC50", "setting": "[1]; Homo sapiens, Neuron, 72 h, three-day incubation, formulations in medium with MSM 0.1 μM and FDP 1 μM, chlorpromazine without MSM and FDP, read-out: IC50 for Cell Loss", "value": 3.8, "unit": "µM"}, {"measurement": "neuron cell toxicity / safety (in words)", "setting": "[1]; at comparable concentrations", "value": "relatively high neuron cell toxicity"}]}, {"smiles": "O=C(COP(=O)(O)O)[C@@H](O)[C@H](O)[C@H](O)COP(=O)(O)O", "note": "[FDP, fructose 1,6-diphosphate]", "values": [{"measurement": "concentration above which cell viability declined", "setting": "primary chicken neurons", "value": "above 0.1 mM"}]}, {"smiles": "CS(C)(=O)=O", "note": "[MSM, methylsulfonylmethane]", "values": [{"measurement": "concentration above which cell viability declined", "setting": "primary chicken neurons", "value": "above 5 mM"}]}]}
